Experimental findings from patent publication US9428504B2, “7-hydroxy-spiropipiperidine indolinyl antagonists of P2Y1 receptor” (BRISTOL-MYERS SQUIBB COMPANY, priority 2012, dated 2016) are described below.

Each structure is given as a SMILES string.

The target in one experiment is cloned human P2Y1 receptors (Homo sapiens (Human), UniProt P47900). In words: Binding Assay B: Scintillation Proximity Assay (SPA) for P2Y1 binding. The settings on record: SPA, [33P] 2MeS-ADP displacement; read-out: P2Y1 Ki (nM) using binding assay B. Here is the method: A SPA membrane binding assay was used to identify inhibitors of [^33P] […] Binding reactions were performed in 384-well OptiPlates (PerkinElmer Life Sciences, Cat #6007299) in a volume of 50 μL containing ˜15 fmol of P2Y1 receptor (1.7 μg of total protein), 0.3 nM [^33P] […] Reactions were allowed to proceed to completion at room temperature for 1 hour followed by centrifugation of the plate for 5 min. About 40 μL of the aqueous solution was aspirated. Plates were sealed and the [^33P]
Chain of cloned human P2Y1 receptors (P47900 whole entry): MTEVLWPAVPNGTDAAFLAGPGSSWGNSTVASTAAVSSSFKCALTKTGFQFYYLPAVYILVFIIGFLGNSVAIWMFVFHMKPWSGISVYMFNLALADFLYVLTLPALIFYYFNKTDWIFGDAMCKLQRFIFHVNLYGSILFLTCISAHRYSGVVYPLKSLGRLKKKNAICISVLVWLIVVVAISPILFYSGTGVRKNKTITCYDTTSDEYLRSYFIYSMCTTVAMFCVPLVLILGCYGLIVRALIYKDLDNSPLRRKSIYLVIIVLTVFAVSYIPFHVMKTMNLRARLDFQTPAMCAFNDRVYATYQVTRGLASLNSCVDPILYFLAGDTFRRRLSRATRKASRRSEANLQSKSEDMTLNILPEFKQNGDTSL
(In general: In a scintillation proximity assay essentially only radioactivity close to the scintillant gives light.)
For `CC(C)(C)CN1CCC2(CC1)CN(c1ccccc1NC(=O)Nc1ccc(C(C)(C)C)cc1)c1c2ccc(F)c1O` [Example 2, 1-(4-tert-Butylphenyl)-3-(2-(6-fluoro-7-hydroxy-1′-neopentylspiro[indoline-3,4′-piperidine]-1-yl)phenyl)urea], the Ki worked out at 9 nM.

Another experiment deals with human platelet rich plasma (PRP). As to the kind of experiment: ADP induced platelet aggregation assay. The settings on record: Homo sapiens, Platelet, read-out: PA IC50 (μM) @ 10 μM ADP, platelet aggregation induced by 10 μM ADP, human PRP.
For `CC(C)(C)CN1CCC2(CC1)CN(c1ccccc1NC(=O)Nc1ccc(C(C)(C)C)cc1)c1c2ccc(F)c1O` [Example 2, 1-(4-tert-Butylphenyl)-3-(2-(6-fluoro-7-hydroxy-1′-neopentylspiro[indoline-3,4′-piperidine]-1-yl)phenyl)urea], the IC50 stood at 0.6 µM.
For `CC(C)(C)CN1CCC2(CC1)CN(c1ccc(F)cc1NC(=O)Nc1nc3ccc(F)cc3s1)c1c(O)ccc(Cl)c12` [Example 68, 1-(2-(4-Chloro-7-hydroxy-1′-neopentylspiro[indoline-3,4′-piperidine]-1-yl)-5-fluorophenyl)-3-(6-fluorobenzo[d]thiazol-2-yl)urea], the half-maximal inhibitory concentration (IC50) is 0.7 µM.
The same measure, in the same setting: then `CC(C)(C)CN1CCC2(CC1)CN(c1ccccc1NC(=O)Nc1ccc(OC(F)(F)F)cc1)c1c(O)cc(F)cc12` [Example 76, 1-(2-(5-Fluoro-7-hydroxy-1′-neopentylspiro[indoline-3,4′-piperidine]-1-yl)phenyl)-3-(4-(trifluoromethoxy)phenyl)urea], with 0.7 µM.
Still for that read-out and setting: then `COc1ccc2nc(NC(=O)Nc3ccccc3N3CC4(CCN(CC(C)(C)C)CC4)c4c(C#N)ccc(O)c43)sc2c1` [Example 86, l-(2-(4-Cyano-7-hydroxy-1′-neopentylspiro[indoline-3,4′-piperidin]-1-yl)phenyl)-3-(6-methoxybenzo[d]thiazol-2-yl)urea], with 0.8 µM; and `CC(C)c1nsc(NC(=O)Nc2ccccc2N2CC3(CCN(CC(C)(C)C)CC3)c3c(C#N)ccc(O)c32)n1` [Example 88, l-(2-(4-Cyano-7-hydroxy-1′-neopentylspiro[indoline-3,4′-piperidin]-1-yl)phenyl)-3-(3-isopropyl-1,2,4-thiadiazol-5-yl)urea], with 0.9 µM.
Still for that read-out and setting: then `CC(C)(C)CN1CCC2(CC1)CN(c1ccccc1NC(=O)Nc1nc3ccc(Cl)cc3s1)c1c(O)cc(F)c(Cl)c12` [Example 94, 1-(2-(4-Chloro-5-fluoro-7-hydroxy-1′-neopentylspiro [indoline-3,4′-piperidine]-1-yl)phenyl)-3-(6-chlorobenzo[d]thiazol-2-yl)urea], with 0.7 µM; and `CC(C)(C)CN1CCC2(CC1)CN(c1ccccc1NC(=O)Nc1csc(Cl)n1)c1c(O)cc(F)c(Cl)c12` [Example 103, 1-(2-(4-Chloro-5-fluoro-7-hydroxy-1′-neopentylspiro [indoline-3,4′-piperidin]-1-yl)phenyl)-3-(2-chlorothiazol-4-yl)urea], with 0.3 µM; and `CC(C)(C)CN1CCC2(CC1)CN(c1ccccc1NC(=O)Nc1nc3ccc(Cl)nc3s1)c1c(O)ccc(-c3nc4cc(C(F)(F)F)ccc4s3)c12` [Example 109, 1-(5-Chlorothiazolo[5,4-b]pyridin-2-yl)-3-(2-(7-hydroxy-1′-neopentyl-4-(5-(trifluoromethyl)benzo[d]thiazol-2-yl)spiro[indoline-3,4′-piperidin]-1-yl)phenyl)urea], with 0.4 µM.
Turning to `CC(C)(C)CN1CCC2(CC1)CN(c1ccccc1NC(=O)Nc1nc3ccc(Cl)nc3s1)c1c(O)ccc(-c3nc4cc(Cl)ccc4s3)c12` [Example 110, 1-(2-(4-(5-Chlorobenzo[d]thiazol-2-yl)-7-hydroxy-1′-neopentylspiro[indoline-3,4′-piperidin]-1-yl)phenyl)-3-(5-chlorothiazolo[5,4-b]pyridin-2-yl)urea], the IC50 came to 0.5 µM.
As for `CC(C)(C)CN1CCC2(CC1)CN(c1ccccc1NC(=O)Nc1csc(Cl)n1)c1c(O)ccc(-c3nc4cc(Cl)ccc4s3)c12` [Example 111, 1-(2-(4-(5-Chlorobenzo[d]thiazol-2-yl)-7-hydroxy-1′-neopentylspiro[indoline-3,4′-piperidine]-1-yl)phenyl)-3-(2-chlorothiazol-4-yl)urea], the IC50 is 0.2 µM.
Consider `CC(C)(C)CN1CCC2(CC1)CN(c1ccccc1NC(=O)Nc1csc(Cl)n1)c1c(O)ccc(-c3nc4cccc(Cl)c4s3)c12` [Example 122, 1-(2-(4-(7-Chlorobenzo[d]thiazol-2-yl)-7-hydroxy-1′-neopentylspiro[indoline-3,4′-piperidin]-1-yl)phenyl)-3-(2-chlorothiazol-4-yl)urea], for which the IC50 amounted to 0.4 µM.
As for `CC(C)(C)CN1CCC2(CC1)CN(c1ccccc1NC(=O)Nc1nc3ccc(Cl)cc3s1)c1c(O)ccc(-c3nc4cc(F)ccc4s3)c12` [Example 127, 1-(6-Chlorobenzo[d]thiazol-2-yl)-3-(2-(4-(5-fluorobenzo[d]thiazol-2-yl)-7-hydroxy-1′-neopentylspiro[indoline-3,4′-piperidin]-1-yl)phenyl)urea], the IC50 was 0.5 µM.
Still for that read-out and setting: then `CC(C)(C)CN1CCC2(CC1)CN(c1ccccc1NC(=O)Nc1nc3ccc(F)cc3s1)c1c(O)ccc(-c3nc4cc(Cl)ccc4s3)c12` [Example 133, 1-(2-(4-(5-Chlorobenzo[d]thiazol-2-yl)-7-hydroxy-1′-neopentylspiro[indoline-3,4′-piperidin]-1-yl)phenyl)-3-(6-fluorobenzo[d]thiazol-2-yl)urea], with 0.3 µM.
Turning to `CC(C)(C)CN1CCC2(CC1)CN(c1ccccc1NC(=O)Nc1ccc(OC(F)(F)F)cc1)c1c(O)ccc(-c3nc4cc(Cl)ccc4s3)c12` [Example 134, 1-(2-(4-(5-Chlorobenzo[d]thiazol-2-yl)-7-hydroxy-1′-neopentylspiro[indoline-3,4′-piperidin]-1-yl)phenyl)-3-(4-(trifluoromethoxy)phenyl)urea], the IC50 was found to be 0.4 µM.
As for `CC(C)(C)CN1CCC2(CC1)CN(c1ccccc1NC(=O)Nc1ccc(OC(F)(F)F)cc1)c1c(O)ccc(-c3nc4ccc(Cl)cc4s3)c12` [Example 136, 1-(2-(4-(6-Chlorobenzo[d]thiazol-2-yl)-7-hydroxy-1′-neopentylspiro[indoline-3,4′-piperidin]-1-yl)phenyl)-3-(4-(trifluoromethoxy)phenyl)urea], the IC50 came out at 0.5 µM.
Regarding `CC(C)(C)CN1CCC2(CC1)CN(c1ccccc1NC(=O)Nc1nc3ccc(F)cc3s1)c1c(O)ccc(-c3nc4ccc(Cl)cc4s3)c12` [Example 139, 1-(2-(4-(6-Chlorobenzo[d]thiazol-2-yl)-7-hydroxy-1′-neopentylspiro[indoline-3,4′-piperidin]-1-yl)phenyl)-3-(6-fluorobenzo[d]thiazol-2-yl)urea], the IC50 was 0.4 µM.
In the case of `CC(C)CN1CCC2(CC1)CN(c1ccccc1NC(=O)Nc1ccc(OC(F)(F)F)cc1)c1c(O)ccc(-c3nc4cc(Cl)ccc4s3)c12` [Example 142, 1-(2-(4-(5-Chlorobenzo[d]thiazol-2-yl)-7-hydroxy-1′-isobutylspiro[indoline-3,4′-piperidine]-1-yl)phenyl)-3-(4-(trifluoromethoxy)phenyl)urea], the IC50 turned out to be 0.5 µM.
Regarding `CC(C)N1CCC2(CC1)CN(c1ccccc1NC(=O)Nc1ccc(OC(F)(F)F)cc1)c1c(O)ccc(-c3nc4cc(Cl)ccc4s3)c12` [Example 143, 1-(2-(4-(5-Chlorobenzo[d]thiazol-2-yl)-7-hydroxy-1′-isopropylspiro[indoline-3,4′-piperidine]-1-yl)phenyl)-3-(4(trifluoromethoxy)phenyl)urea], the 50% inhibitory concentration (IC50) was 0.9 µM.
Still for that read-out and setting: the figure for `CC(C)(C)CN1CCC2(CC1)CN(c1ccccc1NC(=O)Nc1nc3ccc(F)cc3s1)c1c(O)ccc(-c3nc4ccc(F)cc4s3)c12` [Example 148, 1-(6-Fluorobenzo[d]thiazol-2-yl)-3-(2-(4-(6-fluorobenzo[d]thiazol-2-yl)-7-hydroxy-1′-neopentylspiro[indoline-3,4′-piperidin]-1-yl)phenyl)urea] is 0.3 µM; for `CC(C)(C)CN1CCC2(CC1)CN(c1ccccc1NC(=O)Nc1csc(Cl)n1)c1c(O)cc(F)c(-c3ccc(Cl)cc3)c12` [Example 163, 1-(2-(4-(4-Chlorophenyl)-5-fluoro-7-hydroxy-1′-neopentylspiro[indoline-3,4′-piperidin]-1-yl)phenyl)-3-(2-chlorothiazol-4-yl)urea] it is 0.1 µM.
In the case of `CC(C)CN1CCC2(CC1)CN(c1ccccc1NC(=O)Nc1nc3ccc(Cl)nc3s1)c1c(O)ccc(C(F)(F)F)c12` [Example 171, 1-(5-Chlorothiazolo[5,4-b]pyridin-2-yl)-3-(2-(7-hydroxy-1′-isobutyl-4-(trifluoromethyl)spiro[indoline-3,4′-piperidine]-1-yl)phenyl)urea], the IC50 came to 0.3 µM.
With `COc1ccc2nc(NC(=O)Nc3ccccc3N3CC4(CCN(CC(C)(C)C)CC4)c4c(C#N)ccc(O)c43)sc2n1` [Example 177, 1-(2-(4-Cyano-7-hydroxy-1′-neopentylspiro[indoline-3,4′-piperidine]-1-yl)phenyl)-3-(5-methoxythiazolo[5,4-b]pyridin-2-yl)urea], the IC50 was found to be 0.7 µM.
`CC(C)(C)CN1CCC2(CC1)CN(c1ccccc1NC(=O)Nc1nc3ccc(F)nc3s1)c1c(O)ccc(C#N)c12` [Example 180, 1-(2-(4-Cyano-7-hydroxy-1′-neopentylspiro[indoline-3,4′-piperidine]-1-yl)phenyl)-3-(5-fluorothiazolo[5,4-b]pyridin-2-yl)urea]: the IC50 came to 0.9 µM.

Still in this experiment, the particulars now being: read-out: PA IC50 (μM) @ 10 μM ADP; platelet aggregation induced by 10 μM ADP, human PRP.
With `CC(C)(C)CN1CCC2(CC1)CN(c1ccccc1NC(=O)Nc1ccc(OC(F)(F)F)cc1)c1c(O)cc(F)c(-c3nc4ccc(F)cc4s3)c12` [Example 151, 1-(2-(5-Fluoro-4-(6-fluorobenzo[d]thiazol-2-yl)-7-hydroxy-1′-neopentylspiro[indoline-3,4′-piperidin]-1-yl)phenyl)-3-(4-(trifluoromethoxy)phenyl)urea], the IC50 came out at 0.3 µM.

One may read the Ki as the equilibrium dissociation constant of an inhibitor or competing ligand from its target. What is called IC50 is the concentration that gives 50% inhibition.
